Experimental data published in the SangsterLogP compilation.

How the values were obtained:
[1] = method code SF-AS, from PMID: 10944786; settings: pH 7.0
[2] = not given; remark: listed apart in the source
[3] = not given; remark: listed apart in the source
[4] = not given; remark: listed apart in the source
[5] = not given; remark: listed apart in the source
[6] = not given; remark: listed apart in the source
[7] = not given; remark: listed apart in the source
[8] = not given; remark: listed apart in the source
[9] = method code SF-RC, from DOI: 10.1016/j.bmc.2005.04.014, PMID: 15911305; settings: pH 7.4
[10] = method code SF-RC, from PMID: 14530489; settings: pH 7.4
[11] = method code SF, from DOI: 10.1007/978-94-011-1472-1_81
[12] = method code SF-RC, from DOI: 10.1016/s0969-8051(99)00046-3, PMID: 10628564; settings: pH 7.4
[13] = method code SF-RC, from DOI: 10.1002/jlcr.1932; settings: pH 7.4
[14] = method code SF-AS, from DOI: 10.1213/00000539-199008000-00008, PMID: 2375517
[15] = not given; remark: listed apart in the source
[16] = method code SF-AS, from DOI: 10.1021/jm00170a024, PMID: 2374146
[17] = not given; remark: listed apart in the source
[18] = method code SF-AS, from PMID: 872227; settings: pH 7.2
[19] = method code SF-GR, from DOI: 10.1021/jm00199a032, PMID: 619145
[20] = method code SF-AS, from DOI: 10.1007/bf02273190
[21] = not given; remark: listed apart in the source
[22] = not given; remark: listed apart in the source
[23] = not given; remark: listed apart in the source
[24] = method code SF-AS, from Zsuzsa, H.; Nora, K. (1979). Study on the partition coefficient of acetanilides. Nehezvegyp. Kut. Intez. Kozl., 8, 139-146.
[25] = method code SF-LC/MS, from DOI: 10.1021/jm4008714, PMID: 23919803; settings: pH 7.4
[26] = method code SF-AS, from PMID: 3449083
[27] = not given; remark: listed apart in the source
[28] = not given; remark: listed apart in the source
[29] = method code SF-AS, from DOI: 10.1016/s0928-0987(01)00170-1, PMID: 11500262; settings: pH 12.5
[30] = method code SF-AS, from DOI: 10.1016/0378-5173(92)90099-n
[31] = not given; remark: listed apart in the source
[32] = method code SF-GLC, from DOI: 10.1556/jpc.23.2010.3.6
[33] = pH 7.4
[34] = not given; remark: listed apart in the source
[35] = method code SF-HPLC, from DOI: 10.1002/jps.2600840622; settings: pH 7.0
[36] = method code SF-AS, from DOI: 10.1248/cpb.39.458, PMID: 1829027; settings: pH 7.0
[37] = not given; remark: listed apart in the source
[38] = method code SF-RC, from DOI: 10.1016/j.nucmedbio.2012.01.004, PMID: 22336372; settings: pH 7.4
[39] = not given; remark: listed apart in the source
[40] = not given; remark: listed apart in the source
[41] = method code SF-RC, from DOI: 10.1021/jm070025+, PMID: 17411026; settings: pH 7.4
[42] = not given; remark: listed apart in the source
[43] = method code SF-AS, from DOI: 10.1016/s0021-9673(00)91570-x; settings: pH 3.4
[44] = from Ammermann, E., Loecher, F., Lorenz, G., Janssen, B., Karbach, S., & Meyer, N. (1990). BAS 480 F - a new broad spectrum fungicide. In Brighton Crop Protection Conference, Pests and Diseases - 1990 …; settings: pH 7.0
[45] = method code SF-AS, from DOI: 10.1021/jm00099a010, PMID: 1433194; settings: pH 7.4
[46] = method code SF, from DOI: 10.1248/cpb.35.4144, PMID: 3435941; settings: pH 6.8
[47] = method code SF-RC, from DOI: 10.1021/es00096a007

## CCCCOc1cccc(NC(=O)OCN2CCCCC2)c1
[1]
  logD: 2.97

## CCCCCCCC(=O)N[C@@H]1C(=O)N2[C@@H]1SC(C)(C)[C@@H]2C(=O)O
other
  logP: 3.32

## COc1ccc2c3c1O[C@H]1[C@@H](O)C=C[C@H]4[C@@H](C2)N(C)CC[C@@]341
[2]
  logP: 1.22

## CC(C)(Oc1ccccc1)C(=O)N[C@@H]1C(=O)N2[C@@H]1SC(C)(C)[C@@H]2C(=O)O
[3]
  logP: 2.76

## CCCN(CCC)P(=O)(OC(C)CC)c1ccccc1 (stereo not drawn)
[4]
  logP: 4.13

## COC1=CC(=NO)CC(C)C12Oc1c(Cl)c(OC)cc(OC)c1C2=O (stereo not drawn)
[5]
  logP: 2.31

## CC(Oc1ccccc1)C(=O)N[C@@H]1C(=O)N2[C@@H]1SC(C)(C)[C@@H]2C(=O)O (stereo partly drawn)
[6]
  logP: 2.19

## O=C1/C(=C/c2cccc(Cl)c2)CCCc2ccccc21
[7]
  logP: 5.22

## CCCCCCNC(=O)CNC(=O)OCc1ccccc1
[8]
  logP: 3.7

## Nc1nc(OCc2cccc(I)c2)c2ncn(C3CC(O)C(CO)O3)c2n1 (stereo not drawn)
[9]
  logD: 1.4

## CS(=O)(=O)c1ccc(-c2ccsc2-c2ccc(F)cc2)cc1
[10]
  logD: 3.72

## Cc1cccc2c1Sc1ccccc1C2NC(=O)CN(C)C (stereo not drawn)
[11]
  logP: 3.24

## CN1CCN(C(=O)OC2c3nccnc3C(=O)N2c2ccc(I)cn2)CC1 (stereo not drawn)
[12]
  logD: 1.6

## O=C(OCC1=CC(=O)c2ccccc2C1=O)c1ccc(F)cc1
[13]
  logD: 2.7

## CCCN1CCCC[C@H]1C(=O)Nc1c(C)cccc1C
[14]
  logP: 2.89

## c1ccc2c(c1)Cc1c-2ccc2ccccc12
[15]
  logP: 5.32

## CCOP(=O)(Cc1ccc(-c2nc3ccccc3s2)cc1)OCC
[16]
  logP: 3.5

## c1ccc(C2=NOC3COC(c4ccccc4)OCC23)cc1 (stereo not drawn)
[17]
  logP: 3.42

## CCCOc1ccc(NC(=O)OCCN2CCOCC2)c(C)c1
[18]
  logD: 2.21

## S=P(NN=Cc1ccccn1)(NN=Cc1ccccn1)Oc1ccccc1
[19]
  logP: 1.62

## CCCCCCC(=O)N(C)c1ccc(S(=O)(=O)N(C)C)cc1
[20]
  logP: 2.61

## CCCCC(CC)COC(=O)c1ccc(N(C)C)cc1 (stereo not drawn)
[21]
  logP: 6.6

## COc1c(OC)c(OC(C)=O)c2cc(NC(C)=O)ccc2c1OC(C)=O
[22]
  logP: 2

## COC(=O)C1C2CC3CCC1N3CC2=Cc1ccc(I)c(Cl)c1 (stereo not drawn)
[23]
  logP: 4.25

## CC(Cl)C(=O)N(CC(=O)Nc1ccccc1)c1ccccc1 (stereo not drawn)
[24]
  logP: 3.02

## Cn1c(=O)nc(-c2ccccc2)c2oc3ccccc3c21
[25]
  logD: 2.8

## CN1C=CCC(C(=O)OC2CCC(NC(=O)N(CCCl)N=O)CC2)=C1 (stereo not drawn)
[26]
  logP: 2.53

## CN1CC[C@]23c4c5ccc(O)c4O[C@H]2C(=O)CC[C@@]3(O)[C@H]1C5
[27]
  logP: 0.67

## O=C(O)c1cc(/N=N/c2ccc(S(=O)(=O)Nc3ccccn3)cc2)ccc1O
[28]
  logP: -0.13

## CN(C)CCC(c1ccccc1)c1ccccc1
[29]
  logD: 5.4

## CCn1cc(C(=O)O)c(=O)c2cc(F)c(N3CCN(C)CC3)c(F)c21
[30]
  logP: 0.3

## CC[C@@H](c1ccc(O)cc1)[C@H](CCF)c1ccc(O)cc1
[31]
  logP: 4.03

## CCCCCCCCCCCCCCCCO
[32]
  logP: 7

## CCCCSCS(=O)CC(CO)NC(=O)C=Cc1c(C)[nH]c(=O)[nH]c1=O (stereo not drawn)
[33]
  logD: 0.14

## CCCCCCCCCCCCCCOC(=O)C(C)O (stereo not drawn)
[34]
  logP: 6.08

## CCN1CCN(c2cc3c(cc2F)c(=O)c(C(=O)O)cn3CC)CC1
[35]
  logD: 0.37

## CCCC(=O)OC[C@H]1O[C@@H](n2cc(F)c(=O)[nH]c2=O)C[C@@H]1OC(=O)CCC
[36]
  logD: 1.9

## CN1CCN2c3ccccc3Cc3ccccc3C2C1 (stereo not drawn)
[37]
  logP: 4

## C#CCN(CCF)c1ccc(S(=O)c2ccc([N+](=O)[O-])cc2)cc1 (stereo not drawn)
[38]
  logD: 2.6

## Clc1ccc(COC(Cn2ccnc2)c2ccc(Cl)cc2Cl)c(Cl)c1 (stereo not drawn)
[39]
  logP: 5.81

## Cc1cc2c(s1)Nc1ccccc1N=C2N1CCN(C)CC1
[40]
  logP: 3

## CN(C)c1ccc(/C=C/c2cnc(OCCO)c(I)c2)cc1
[41]
  logD: 2.64

## CC1C=COC1C(=O)Nc1cccc(-c2nc3ncccc3o2)c1 (stereo not drawn)
[42]
  logP: 2.9

## COc1cc(CC(=O)O)ccc1OCC1CCCCC1
[43]
  logD: 3.35

## Fc1ccc([C@]2(Cn3cncn3)O[C@H]2c2ccccc2Cl)cc1 (stereo in doubt)
[44]
  logD: 3.44

## CN1CCN(Cc2ccc(C(=O)c3csc(S(N)(=O)=O)c3)cc2)CC1
[45]
  logD: 0.37

## COC(=O)C1=C(C)NC(C)=C(P2(=O)OCCCO2)C1c1ccccc1[N+](=O)[O-] (stereo not drawn)
[46]
  logD: 1.3

## Nc1cc2c3ccccc3ccc2c2ccccc12
[47]
  logP: 4.98
